Assay results: ChEMBL document CHEMBL1201862, “PubChem BioAssay data set” (2004)
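Step 1: Grow cells in 96-well plates. Step 2: Expose to compound for 48 hours at 5 concentrations. Step 3: Interpolate endpoints linearly; if unreached, use highest concentration. At the GI50, growth is halved.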 The source made the active and inactive calls. Cut-off read from the data, not from the text of the source: active = GI50 up to about 1.1 µM and inactive = higher.

Legend:
Assay in all cases: inhibition of tumour cell growth, NCI panel, 48 h
[1] = test system: COLO 205
[2] = test system: OVCAR-4
[3] = test system: T47D
[4] = test system: MDA-N
[5] = test system: DU-145
[6] = test system: MOLT-4
[7] = test system: BT-549
[8] = test system: TK-10
[9] = test system: LOX IMVI
[10] = test system: Hs-578T
[11] = test system: HCC 2998
[12] = test system: SR
[13] = test system: RXF 393
[14] = test system: SW-620
[15] = test system: UACC-257
[16] = test system: NCI-H226
[17] = test system: SF-539
[18] = test system: M14
[19] = test system: SF-295
[20] = test system: SNB-75

SMILES | GI50 [1] | GI50 [2] | GI50 [3] | GI50 [4] | GI50 [5] | GI50 [6] | GI50 [7] | GI50 [8] | GI50 [9] | GI50 [10] | GI50 [11] | GI50 [12] | GI50 [13] | GI50 [14] | GI50 [15] | GI50 [16] | GI50 [17] | GI50 [18] | GI50 [19] | GI50 [20]
c1ccc([I+]c2ccccc2)cc1 | > 100 µM (inactive) | > 100 µM (inactive) | > 100 µM (inactive) | > 100 µM (inactive) | > 100 µM (inactive) | > 100 µM (inactive) | > 100 µM (inactive) | > 100 µM (inactive) | > 100 µM (inactive) | > 100 µM (inactive) | > 100 µM (inactive) | > 100 µM (inactive) | > 100 µM (inactive) | > 100 µM (inactive) | > 100 µM (inactive) | > 100 µM (inactive) | > 100 µM (inactive) | > 100 µM (inactive) | > 100 µM (inactive) | –
COC(CN(C)C(=O)C(C)NC(=O)c1ccccc1)OC (stereo not given) | > 100 µM (inactive) | > 100 µM (inactive) | > 100 µM (inactive) | > 100 µM (inactive) | > 100 µM (inactive) | > 100 µM (inactive) | > 100 µM (inactive) | > 100 µM (inactive) | – | > 100 µM (inactive) | – | > 100 µM (inactive) | > 100 µM (inactive) | > 100 µM (inactive) | > 100 µM (inactive) | > 100 µM (inactive) | > 100 µM (inactive) | > 100 µM (inactive) | > 100 µM (inactive) | > 100 µM (inactive)
Cc1ccc(OC2CC(n3cnc4c(=O)[nH]c(Br)nc43)OC2Oc2ccc(C)cc2)cc1 (stereo not given) | 31 µM (inactive) | 37 µM (inactive) | 24.8 µM (inactive) | – | 24.7 µM (inactive) | 23.9 µM (inactive) | 26.9 µM (inactive) | 23.2 µM (inactive) | 26.2 µM (inactive) | 24.5 µM (inactive) | 24 µM (inactive) | 18.1 µM (inactive) | 22.5 µM (inactive) | 44.4 µM (inactive) | 25 µM (inactive) | 34.5 µM (inactive) | 20.2 µM (inactive) | 24.9 µM (inactive) | 21.7 µM (inactive) | –
c1ccc([P+](CCNCCNCC[P+](c2ccccc2)(c2ccccc2)c2ccccc2)(c2ccccc2)c2ccccc2)cc1 | > 100 µM (inactive) | > 100 µM (inactive) | > 100 µM (inactive) | > 100 µM (inactive) | > 100 µM (inactive) | > 100 µM (inactive) | > 100 µM (inactive) | > 100 µM (inactive) | – | > 100 µM (inactive) | > 100 µM (inactive) | – | > 100 µM (inactive) | > 100 µM (inactive) | > 100 µM (inactive) | > 100 µM (inactive) | > 100 µM (inactive) | > 100 µM (inactive) | > 100 µM (inactive) | > 100 µM (inactive)
CCOc1cc(C2CC(c3ccc(NS(=O)(=O)c4cc([N+](=O)[O-])ccc4C)cc3)=NN2C(=O)c2ccccc2)ccc1O (stereo not given) | 16.4 µM (inactive) | 24.6 µM (inactive) | 12.1 µM (inactive) | 21.8 µM (inactive) | 32.7 µM (inactive) | 19.4 µM (inactive) | 20.1 µM (inactive) | 14.2 µM (inactive) | 26.9 µM (inactive) | 16.8 µM (inactive) | – | 23.8 µM (inactive) | 11.4 µM (inactive) | 32.8 µM (inactive) | 18.2 µM (inactive) | 19.2 µM (inactive) | 20.9 µM (inactive) | 18.7 µM (inactive) | 20.8 µM (inactive) | 14.1 µM (inactive)
CCC/C(=N\NC(=S)N1CCN(c2ccccn2)CC1)c1ccccn1 | 0.00508 µM (active) | 0.191 µM (active) | 0.00248 µM (active) | 0.157 µM (active) | 1.13 µM (inactive) | – | 0.0212 µM (active) | 0.335 µM (active) | 0.0258 µM (active) | 0.213 µM (active) | 0.0594 µM (active) | 0.00191 µM (active) | 0.269 µM (active) | – | 0.00387 µM (active) | 1.06 µM (active) | – | – | 0.00979 µM (active) | –
C=C(C)[C@@]1(OC(=O)c2cc([N+](=O)[O-])cc([N+](=O)[O-])c2)C[C@@H]2CCCC[C@@H]21 | 39.2 µM (inactive) | 56.2 µM (inactive) | > 100 µM (inactive) | > 100 µM (inactive) | > 100 µM (inactive) | > 100 µM (inactive) | > 100 µM (inactive) | > 100 µM (inactive) | > 100 µM (inactive) | > 100 µM (inactive) | 59.6 µM (inactive) | > 100 µM (inactive) | – | > 100 µM (inactive) | > 100 µM (inactive) | > 100 µM (inactive) | > 100 µM (inactive) | 53.6 µM (inactive) | 72.9 µM (inactive) | > 100 µM (inactive)
CC(=O)N(CCc1ccccc1)C(C#N)c1ccc(OCCCCCCCCCCOc2ccc(C(C#N)N(CCc3ccccc3)C(C)=O)cc2)cc1 (stereo not given) | > 100 µM (inactive) | 5.41 µM (inactive) | 41 µM (inactive) | > 100 µM (inactive) | 85.9 µM (inactive) | > 100 µM (inactive) | 33 µM (inactive) | 41.2 µM (inactive) | > 100 µM (inactive) | 17.1 µM (inactive) | > 100 µM (inactive) | – | 22.6 µM (inactive) | > 100 µM (inactive) | > 100 µM (inactive) | 22 µM (inactive) | 23.3 µM (inactive) | > 100 µM (inactive) | 12.4 µM (inactive) | 17.7 µM (inactive)
C/C(=N\Nc1nc2cc(F)ccc2s1)c1ccccn1 | < 0.01 µM (active) | 1.06 µM (active) | < 0.01 µM (active) | – | 0.344 µM (active) | 0.0102 µM (active) | 1.19 µM (inactive) | – | – | 0.335 µM (active) | 1.92 µM (inactive) | 0.0313 µM (active) | 1.26 µM (inactive) | < 0.01 µM (active) | < 0.0182 µM (active) | < 0.0242 µM (active) | 0.0906 µM (active) | 0.0171 µM (active) | 0.275 µM (active) | 0.661 µM (active)
COc1ccc(C(NCCNC(c2ccc(OC)c(OC)c2)c2cc3c(cc2O)OCO3)c2cc3c(cc2O)OCO3)cc1OC (stereo not given) | 2.89 µM (inactive) | 4.83 µM (inactive) | 3.37 µM (inactive) | 1.64 µM (inactive) | 2.8 µM (inactive) | 0.918 µM (active) | 2.12 µM (inactive) | 4.04 µM (inactive) | 1.8 µM (inactive) | 3.24 µM (inactive) | – | 0.682 µM (active) | 1.72 µM (inactive) | 1.29 µM (inactive) | 4.26 µM (inactive) | 8.02 µM (inactive) | 2.27 µM (inactive) | 2.92 µM (inactive) | 5.32 µM (inactive) | 3.56 µM (inactive)
C[N+](C)(N)CCC[N+](C)(C)N | > 100 µM (inactive) | > 100 µM (inactive) | > 100 µM (inactive) | > 100 µM (inactive) | > 100 µM (inactive) | > 100 µM (inactive) | > 100 µM (inactive) | > 100 µM (inactive) | > 100 µM (inactive) | > 100 µM (inactive) | – | > 100 µM (inactive) | > 100 µM (inactive) | > 100 µM (inactive) | > 100 µM (inactive) | > 100 µM (inactive) | > 100 µM (inactive) | > 100 µM (inactive) | > 100 µM (inactive) | > 100 µM (inactive)
CN(CCNC(=O)c1nn(-c2ccccc2)c2c1ccc1ccccc12)CCNC(=O)c1nn(-c2ccccc2)c2c1ccc1ccccc12 | 1.54 µM (inactive) | 3.39 µM (inactive) | 2.41 µM (inactive) | 1.75 µM (inactive) | 4.85 µM (inactive) | 0.38 µM (active) | 10.2 µM (inactive) | 1.4 µM (inactive) | 1.77 µM (inactive) | 2.14 µM (inactive) | 1.53 µM (inactive) | – | 1.62 µM (inactive) | 2.17 µM (inactive) | 1.71 µM (inactive) | 2.29 µM (inactive) | 1.66 µM (inactive) | 1.78 µM (inactive) | 1.61 µM (inactive) | 2.18 µM (inactive)
CC(=O)Oc1ccc2c(c1)CC[C@@H]1C2[C@@H](O[N+](=O)[O-])C[C@@]2(C)C1CC[C@@H]2O[N+](=O)[O-] (stereo not given in full) | 16.8 µM (inactive) | 16.3 µM (inactive) | 6.97 µM (inactive) | 14.3 µM (inactive) | 14.2 µM (inactive) | 10.4 µM (inactive) | 17.6 µM (inactive) | 19.8 µM (inactive) | 13.7 µM (inactive) | 19.1 µM (inactive) | 1.63 µM (inactive) | 5.31 µM (inactive) | 11.5 µM (inactive) | 16.1 µM (inactive) | 11.1 µM (inactive) | – | 18.2 µM (inactive) | 14 µM (inactive) | 10.7 µM (inactive) | 13.5 µM (inactive)
Clc1ccc(/C=N/c2ccc(Oc3ccc(Cl)cc3)c(Cl)c2)cc1 | 21.6 µM (inactive) | 25.3 µM (inactive) | 19.5 µM (inactive) | 19.1 µM (inactive) | 30.8 µM (inactive) | 25.5 µM (inactive) | 21.7 µM (inactive) | 50.7 µM (inactive) | 18.8 µM (inactive) | 21.5 µM (inactive) | 21.5 µM (inactive) | – | – | 31 µM (inactive) | 30.9 µM (inactive) | 35.3 µM (inactive) | 17.2 µM (inactive) | 21.1 µM (inactive) | 18.8 µM (inactive) | 22.5 µM (inactive)
CCCCN(Cc1ccccc1)/C(=N/C#N)N(Cc1ccccc1)Cc1ccccc1 | 15.7 µM (inactive) | 15.8 µM (inactive) | 15.8 µM (inactive) | 14.2 µM (inactive) | 34.7 µM (inactive) | > 100 µM (inactive) | 19.2 µM (inactive) | 38.1 µM (inactive) | 10.9 µM (inactive) | 23.4 µM (inactive) | 26.5 µM (inactive) | – | 17.3 µM (inactive) | 24.1 µM (inactive) | 10.6 µM (inactive) | 23.1 µM (inactive) | 21.9 µM (inactive) | 12.8 µM (inactive) | 9.95 µM (inactive) | 21.1 µM (inactive)
